Literature values, collected in patent publication US20140328890A1, “Silver Iodate Compounds Having Antimicrobial Properties” (priority 2010, published 2014).

Details: published literature

For [Ag+].[Ag+].[Ag+].[Ag+].[Ag+].[O-][I+]([O-])([O-])([O-])([O-])[O-] [Ag5IO6, pentasilver hexaoxoiodate], the “sensitivity to light and air” value is listed as “insensitive to light and air”.
